Values after ≈ are worked out from the molar mass of the structure shown. Values joined by “and” are separate entries in the source; they are usually repeats but may differ in a detail not shown here. Identical values can stand only once.
Key:
Assay type in all cases: cell-based, human
cancer cells = experiment: MTT cytotoxic assay of esterification products (Cytotoxicity activity)
In short: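 Cytotoxicity was read by MTT (Carmichael method, modified), with cells seeded 24 h ahead of treatment. Sixteen human cancer lines spanning bone, lung, bladder, ovary, colon, pancreas, prostate, skin, mouth, kidney, breast, liver, brain, leukemia and cervix were used. Test samples were acyl chloride esterification products of triterpenes, as mixtures or HPLC-purified compounds.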

Y79 (retinoblastoma) = experiment: Inhibition of eye cancer cells Y79 (retinoblastoma), MTT; conditions: 2 days
Procedure: Cells: Human Eye cancer cells Y79 (retinoblastoma) are cultured in RPMI1640 medium supplemented with 20% FCS, glutamine and antibiotics.
Starting cells concentration: 400 K per ml in a 24-well plate.
Drug: Tig-S and Tig-R (100× stock solution in 10%DMSO-90% RPMI-1640).
Drug-treatment: Cells were cultured with or without drug (DMSO control) for 2 days. After Drug-treatment, the quantity of live cells is determined with MTT assay*. With this method, the percentage of cell growth with drugs was determined by comparing to those of no-drug (DMSO) control.
MTT assay. To measure the amount of live cells, MTT (3-[4,5-Dimethylthiazol-2-yl]-2,5-diphenyl-tetrazolium bromide) (0.5 mg/ml) was added to cultures and incubated for an hour. Cells were then collected by centrifugation. The formation of formazan (proportion to live cells activity) in the cells was dissolved with DMSO and the O.D. at 490 nm was measured by an ELISA reader. The MTT level of cells before drug-treatment (T0) and after the drug-treatment (TD) was measured. The % cell-growth (%G) is calculated as: %G = (TD-T0) / (TC-T0) × 100 where TC or TD represent O.D. readings of control or drug-treated cells.
When T0 > TD, then the negative growth (cytotoxicity) is expressed as - % of the control and is calculated as: - %G = (TD-T0) / T0) × 100.

[1] = system: DR5 (TNFRSF10B) in U2OS cells; experiment: DR5 Western blot, U2OS cells
[2] = system: Capan cells (pancreas carcinoma); experiment: Agonist activity of anti-DR5 antibody with Tig-R in Capan cells, MTT
Procedure: Capan cells (pancreas carcinoma) were cultured in RPMI1640 medium supplemented with 10% FBS, antibiotics (Pen Strep) and L-Glutamine. Cells were incubated in a 37° C., 5% CO2 incubator.
Antibody: Antibody against Human TRAIL R2/TNFRSF 10B, (from R&D Systems cat# MAB631-100).
Treatment. Cells in log-growth phase were used. Cells were plated in 96-welled plate with 10 K/well 1-2 days before treatment.
Antibody are serially diluted with medium before adding to culture and incubated for 2 days.
After a treatment for 2 days, the quantity of live cells is then determined with MTT assay*. The percentage of cell growth with drugs was determined by comparing to the no-drug (DMSO) control.

[3] = esterification products isolated with HPLC, graded strong / moderate / weak
[4] = U2OS cells, Tig-R, single experiments 1-2

Row | Molecule | Cytotoxicity activity (cancer cells; [3]) | Cytotoxicity activity (cancer cells; esterification products of E4A—Tig—N with senecioyl chloride) | IC50, eye cancer Y79 retinoblastoma (Y79 (retinoblastoma)) [mg/L] | DR5 band intensity, % of DMSO, Average (%) ([1]; U2OS cells, Tig-R, average of 2 experiments) | DR5 Western blot band intensity (Image J) [1, 4] | DR5 band intensity, % of DMSO [1, 4] | increase of DR5 over DMSO control cells ([1]; U2OS, Tig-R treatment) [%] | combined effect with anti-DR5 antibody ([2]; Capan, Tig-R 2.5 or 5 ug/ml) | % Inhibition Experimental ([2]; R 2.5 ug/ml alone) [%] | % Inhibition Experimental ([2]; R 5 ug/ml alone) [%]
1 | CC=C(C)C(=O)OCC1(C)C(O)CCC2(C)C1CCC1(C)C2CC=C2C3CC(C)(C)C(O)C(O)C3(CO)C(O)CC21C (stereo not drawn) [Tig-N] | moderate | moderate |  |  |  |  |  |  |  | 
2 | CC=C(C)C(=O)OCC1(C)C(O)CCC2(C)C1CCC1(C)C2CC=C2C3CC(C)(C)C(OC(=O)C(C)=CC)C(O)C3(CO)C(O)CC21C (stereo not drawn) [Tig-S] |  |  | 0.1 (≈ 0.149 µM) |  |  |  |  |  |  | 
3 | 24,28-O-Tigloyl-3β,16α, 21β, 22a, 24β, 28-hexahydroxyolean-12-ene [Tig-R] | strong |  | 7.5 | 206 | 18269 and 16969 | 209% and 203% | 106 | synergistic | 20 | 29
